This series concerns cancer cells. Put plainly: MTT cytotoxic assay of esterification products (Cytotoxicity activity). Type of series: cell-based, human. A digest of the protocol:
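Cytotoxicity was read by MTT (Carmichael method, modified), with cells seeded 24 h ahead of treatment. Sixteen human cancer lines spanning bone, lung, bladder, ovary, colon, pancreas, prostate, skin, mouth, kidney, breast, liver, brain, leukemia and cervix were used. Test samples were acyl chloride esterification products of triterpenes, as mixtures or HPLC-purified compounds.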
In general terms: Formazan colour is commonly taken as a measure of viable cells.

The mark [1] stands for this setting: E4A esterified with 2-propenoyl chloride (Ppe = Propenoyl), compounds isolated with HPLC.
The mark [2] stands for this setting: E4A esterified with Propionyl chloride (Ppi = Propionyl), compounds isolated with HPLC.
The mark [3] stands for this setting: E4A esterified with benzoyl chloride (Ben = benzoyl), compounds isolated with HPLC.
The mark [4] stands for this setting: esterification products of core compound E4A with (2E)-2-pentenoyl chloride (2pe = 2-pentenoyl).
Where [5] appears, read: esterification products of core compound E4A with Butyryl chloride (But = Butyryl).
[6] abbreviates: esterification products of core compound E4A with Decanoyl chloride (Dec = Decanoyl).
Setting [7] is: esterification products of core compound E4A with Isobutyryl chloride (Iso = Isobutyryl).
Setting [8] is: esterification products of core compound E4A with Myristoyl chloride (Myr = Myristoyl).
Setting [9] is: esterification products of core compound E4A with Octanoyl chloride (Oct = Octanoyl).
[10] abbreviates: esterification products isolated with HPLC, graded strong / moderate / weak.

Take `CC1(C)CC2C3=CCC4C5(C)CCC(OC(=O)c6ccccc6)C(C)(CO)C5CCC4(C)C3(C)CC(O)C2(COC(=O)c2ccccc2)C(O)C1O` (stereo not drawn) [Compound K27]: the Cytotoxicity activity result under setting [1] is “moderate”; the Cytotoxicity activity entry under setting [2] is recorded as “moderate”; the Cytotoxicity activity entry under setting [3] is recorded as “moderate”; the Cytotoxicity activity result under setting [4] is on record as “moderate”; the Cytotoxicity activity result under setting [5] is reported as “moderate”; the Cytotoxicity activity result under setting [6] is “moderate”. Besides, the Cytotoxicity activity result under setting [7] is given as “moderate”, the Cytotoxicity activity entry under setting [8] is reported as “moderate” and the Cytotoxicity activity entry under setting [9] is “moderate”.

With `CC1(C)CC2C3=CCC4C5(C)CCC(O)C(C)(CO)C5CCC4(C)C3(C)CC(OC(=O)c3ccccc3)C2(COC(=O)c2ccccc2)C(O)C1O` (stereo not drawn) [Compound K28], the Cytotoxicity activity entry is given as “moderate” under setting [1]; “moderate” under setting [2]; “moderate” under setting [3]; “moderate” under setting [4]; “moderate” under setting [5]; “moderate” under setting [6]. Also, the Cytotoxicity activity entry is given as “moderate” under setting [7], “moderate” under setting [8] and “moderate” under setting [9].

With `CC1(C)CC2C3=CCC4C5(C)CCC(O)C(C)(COC(=O)c6ccccc6)C5CCC4(C)C3(C)CC(O)C2(CO)C(O)C1OC(=O)c1ccccc1` (stereo not drawn) [Compound K29], the Cytotoxicity activity entry under setting [1] is “moderate”; the Cytotoxicity activity result under setting [2] is on record as “moderate”; the Cytotoxicity activity entry under setting [3] is listed as “moderate”; the Cytotoxicity activity entry under setting [4] is listed as “moderate”; the Cytotoxicity activity result under setting [5] was “moderate”; the Cytotoxicity activity result under setting [6] is reported as “moderate”. Also, the Cytotoxicity activity entry runs as follows: under setting [7], “moderate”; under setting [8], “moderate”; under setting [9], “moderate”.

With `CC1(C)CC2C3=CCC4C5(C)CCC(O)C(C)(COC(=O)c6ccccc6)C5CCC4(C)C3(C)CC(O)C2(CO)C(OC(=O)c2ccccc2)C1O` (stereo not drawn) [Compound K30], the Cytotoxicity activity result under setting [1] is on record as “moderate”; the Cytotoxicity activity entry under setting [2] is “moderate”; the Cytotoxicity activity entry under setting [3] is reported as “moderate”; the Cytotoxicity activity entry under setting [4] is on record as “moderate”; the Cytotoxicity activity entry under setting [5] is “moderate”; the Cytotoxicity activity result under setting [6] was “moderate”. Besides, the Cytotoxicity activity entry is “moderate” under setting [7], “moderate” under setting [8] and “moderate” under setting [9].

For `CC1(C)CC2C3=CCC4C5(C)CCC(OC(=O)c6ccccc6)C(C)(COC(=O)c6ccccc6)C5CCC4(C)C3(C)CC(O)C2(CO)C(O)C1O` (stereo not drawn) [Compound K31], the Cytotoxicity activity entry by setting is: under setting [1], “moderate”; under setting [2], “moderate”; under setting [3], “moderate”; under setting [4], “moderate”; under setting [5], “moderate”; under setting [6], “moderate”. The Cytotoxicity activity entry under setting [7] is recorded as “moderate”, the Cytotoxicity activity result under setting [8] was “moderate” and the Cytotoxicity activity result under setting [9] was “moderate”.

On to `CC1(C)CC2C3=CCC4C5(C)CCC(O)C(C)(COC(=O)c6ccccc6)C5CCC4(C)C3(C)CC(OC(=O)c3ccccc3)C2(CO)C(O)C1O` (stereo not drawn) [Compound K32], for which the Cytotoxicity activity result is, setting by setting: under setting [1], “moderate”; under setting [2], “moderate”; under setting [3], “moderate”; under setting [4], “moderate”; under setting [5], “moderate”; under setting [6], “moderate”. Moreover, the Cytotoxicity activity entry under setting [7] is on record as “moderate”, the Cytotoxicity activity entry under setting [8] is “moderate” and the Cytotoxicity activity result under setting [9] was “moderate”.

For the compound `C/C=C(\C)C(=O)OC[C@]1(C)C2CC[C@]3(C)C(CC=C4C5CC(C)(C)[C@@H](O)[C@H](O)[C@]5(COC(=O)C=C(C)C)[C@H](O)C[C@]43C)[C@@]2(C)CC[C@@H]1O` (stereo partly drawn) [E4A-Tig-Sen-1], the Cytotoxicity activity result (esterification products of E4A—Tig—N with senecioyl chloride) is reported as “strong”.

For the compound `CC=C(C)C(=O)OCC1(C)C(O)CCC2(C)C1CCC1(C)C2CC=C2C3CC(C)(C)C(O)C(O)C3(COC(C)=O)C(O)CC21C` (stereo not drawn) [Tig—Acy—1], under setting [10], the Cytotoxicity activity entry is reported as “strong”.

For the compound `CC=C(C)C(=O)OCC1(C)C(O)CCC2(C)C1CCC1(C)C2CC=C2C3CC(C)(C)C(OC(C)=O)C(O)C3(COC(C)=O)C(O)CC21C` (stereo not drawn) [Tig—Acy—2], the Cytotoxicity activity entry under setting [10] is on record as “moderate”.

Regarding `CC=C(C)C(=O)OCC1(C)C(O)CCC2(C)C1CCC1(C)C2CC=C2C3CC(C)(C)C(O)C(OC(C)=O)C3(COC(C)=O)C(O)CC21C` (stereo not drawn) [Tig—Acy—3], the Cytotoxicity activity entry under setting [10] is given as “moderate”.

For `CC=C(C)C(=O)OCC1(C)C(OC(C)=O)CCC2(C)C1CCC1(C)C2CC=C2C3CC(C)(C)C(O)C(O)C3(COC(C)=O)C(O)CC21C` (stereo not drawn) [Tig—Acy—4], the Cytotoxicity activity result under setting [10] is on record as “moderate”.

Consider `CC=C(C)C(=O)OCC1(C)C(O)CCC2(C)C1CCC1(C)C2CC=C2C3CC(C)(C)C(OC(C)=O)C(O)C3(CO)C(O)CC21C` (stereo not drawn) [Tig—Acy—5], for which, under setting [10], the Cytotoxicity activity result is listed as “moderate”.

Turning to `CC=C(C)C(=O)OCC1(C)C(O)CCC2(C)C1CCC1(C)C2CC=C2C3CC(C)(C)C(O)C(OC(C)=O)C3(CO)C(O)CC21C` (stereo not drawn) [Tig—Acy—6], under setting [10], the Cytotoxicity activity entry is “moderate”.

`CC=C(C)C(=O)OCC1(C)C(O)CCC2(C)C1CCC1(C)C2CC=C2C3CC(C)(C)C(O)C(O)C3(COC(=O)C(C)=CC)C(O)CC21C` (stereo not drawn) [Tig—Ang—1]: under setting [10], the Cytotoxicity activity result is “strong”.

For the compound `CC=C(C)C(=O)OCC1(C)C(O)CCC2(C)C1CCC1(C)C2CC=C2C3CC(C)(C)C(OC(=O)C(C)=CC)C(O)C3(COC(=O)C(C)=CC)C(O)CC21C` (stereo not drawn) [Tig—Ang—2], under setting [10], the Cytotoxicity activity result is “moderate”.

As for `CC=C(C)C(=O)OCC1(C)C(O)CCC2(C)C1CCC1(C)C2CC=C2C3CC(C)(C)C(O)C(OC(=O)C(C)=CC)C3(COC(=O)C(C)=CC)C(O)CC21C` (stereo not drawn) [Tig—Ang—3], the Cytotoxicity activity entry under setting [10] was “moderate”.

For the compound `CC=C(C)C(=O)OCC1(C)C(OC(=O)C(C)=CC)CCC2(C)C1CCC1(C)C2CC=C2C3CC(C)(C)C(O)C(O)C3(COC(=O)C(C)=CC)C(O)CC21C` (stereo not drawn) [Tig—Ang—4], the Cytotoxicity activity entry under setting [10] is on record as “moderate”.

Turning to `CC=C(C)C(=O)OCC1(C)C(O)CCC2(C)C1CCC1(C)C2CC=C2C3CC(C)(C)C(OC(=O)C(C)=CC)C(O)C3(CO)C(O)CC21C` (stereo not drawn) [Tig—Ang—5], the Cytotoxicity activity result under setting [10] is on record as “moderate”.

For `CC=C(C)C(=O)OCC1(C)C(O)CCC2(C)C1CCC1(C)C2CC=C2C3CC(C)(C)C(O)C(OC(=O)C(C)=CC)C3(CO)C(O)CC21C` (stereo not drawn) [Tig—Ang—6], the Cytotoxicity activity entry under setting [10] is “moderate”.

With `CC=C(C)C(=O)OCC1(C)C(O)CCC2(C)C1CCC1(C)C2CC=C2C3CC(C)(C)C(O)C(O)C3(COC(=O)C=Cc3ccccc3)C(O)CC21C` (stereo not drawn) [Tig—Cin—1], the Cytotoxicity activity entry under setting [10] was “strong”.

For `CC=C(C)C(=O)OCC1(C)C(O)CCC2(C)C1CCC1(C)C2CC=C2C3CC(C)(C)C(OC(=O)C=Cc4ccccc4)C(O)C3(COC(=O)C=Cc3ccccc3)C(O)CC21C` (stereo not drawn) [Tig—Cin—2], under setting [10], the Cytotoxicity activity result is on record as “moderate”.

For `CC=C(C)C(=O)OCC1(C)C(O)CCC2(C)C1CCC1(C)C2CC=C2C3CC(C)(C)C(O)C(OC(=O)C=Cc4ccccc4)C3(COC(=O)C=Cc3ccccc3)C(O)CC21C` (stereo not drawn) [Tig—Cin—3], the Cytotoxicity activity result under setting [10] is recorded as “moderate”.

Consider `CC=C(C)C(=O)OCC1(C)C(OC(=O)C=Cc2ccccc2)CCC2(C)C1CCC1(C)C2CC=C2C3CC(C)(C)C(O)C(O)C3(COC(=O)C=Cc3ccccc3)C(O)CC21C` (stereo not drawn) [Tig—Cin—4], for which the Cytotoxicity activity entry under setting [10] is listed as “moderate”.

For the compound `CC=C(C)C(=O)OCC1(C)C(O)CCC2(C)C1CCC1(C)C2CC=C2C3CC(C)(C)C(OC(=O)C=Cc4ccccc4)C(O)C3(CO)C(O)CC21C` (stereo not drawn) [Tig—Cin—5], the Cytotoxicity activity entry under setting [10] is given as “moderate”.

With `CC=C(C)C(=O)OCC1(C)C(O)CCC2(C)C1CCC1(C)C2CC=C2C3CC(C)(C)C(O)C(OC(=O)C=Cc4ccccc4)C3(CO)C(O)CC21C` (stereo not drawn) [Tig—Cin—6], the Cytotoxicity activity entry under setting [10] is “moderate”.

Turning to `CC=CC(=O)OCC12C(O)CC3(C)C(=CCC4C5(C)CCC(O)C(C)(COC(=O)C(C)=CC)C5CCC43C)C1CC(C)(C)C(O)C2O` (stereo not drawn) [Tig—Cro—1], the Cytotoxicity activity result under setting [10] is “strong”.

As for `CC=CC(=O)OCC12C(O)CC3(C)C(=CCC4C5(C)CCC(O)C(C)(COC(=O)C(C)=CC)C5CCC43C)C1CC(C)(C)C(OC(=O)C=CC)C2O` (stereo not drawn) [Tig—Cro—2], the Cytotoxicity activity result under setting [10] is listed as “moderate”.

As for `CC=CC(=O)OCC12C(O)CC3(C)C(=CCC4C5(C)CCC(O)C(C)(COC(=O)C(C)=CC)C5CCC43C)C1CC(C)(C)C(O)C2OC(=O)C=CC` (stereo not drawn) [Tig—Cro—3], the Cytotoxicity activity result under setting [10] is “moderate”.

With `CC=CC(=O)OCC12C(O)CC3(C)C(=CCC4C5(C)CCC(OC(=O)C=CC)C(C)(COC(=O)C(C)=CC)C5CCC43C)C1CC(C)(C)C(O)C2O` (stereo not drawn) [Tig—Cro—4], the Cytotoxicity activity result under setting [10] was “moderate”.

With `CC=CC(=O)OC1C(O)C2(CO)C(O)CC3(C)C(=CCC4C5(C)CCC(O)C(C)(COC(=O)C(C)=CC)C5CCC43C)C2CC1(C)C` (stereo not drawn) [Tig—Cro—5], under setting [10], the Cytotoxicity activity entry is “moderate”.

As for `CC=CC(=O)OC1C(O)C(C)(C)CC2C3=CCC4C5(C)CCC(O)C(C)(COC(=O)C(C)=CC)C5CCC4(C)C3(C)CC(O)C21CO` (stereo not drawn) [Tig—Cro—6], under setting [10], the Cytotoxicity activity entry is “moderate”.

On to `CC=C(C)C(=O)OCC1(C)C(O)CCC2(C)C1CCC1(C)C2CC=C2C3CC(C)(C)C(O)C(O)C3(COC(=O)C(CC)CC)C(O)CC21C` (stereo not drawn) [Tig—Eth—1], for which, under setting [10], the Cytotoxicity activity result is “strong”.

Regarding `CC=C(C)C(=O)OCC1(C)C(O)CCC2(C)C1CCC1(C)C2CC=C2C3CC(C)(C)C(OC(=O)C(CC)CC)C(O)C3(COC(=O)C(CC)CC)C(O)CC21C` (stereo not drawn) [Tig—Eth—2], the Cytotoxicity activity entry under setting [10] was “moderate”.
